Test results as given in patent US20260250289A1, “BICYCLIC HETEROCYCLES AND THEIR USE AS WRN INHIBITORS” (Novartis AG, priority 2022, published 2026).

Assays:
[1] = biological target: T1, WRN helicase (aa N517-P1238) (Homo sapiens, UniProt Q14191); test: WRN ATPase assay (DNA dependent ATP hydrolysis, ADP-Glo); format: biochemical; details: 3 hours pre-incubation, 300 micromolar ATP, FLAP26 DNA; geometric mean of at least 2
T1 construct: The core helicase motif of the WRN protein (aa N517-P1238) was produced for this assay; His (N); ZZ (N); 3C protease cleavage site (N); made in house; host or cells: Sf21 insect cells (baculovirus; virus and BIICs made in SF9)
T1 sequence (Q14191 517-1238): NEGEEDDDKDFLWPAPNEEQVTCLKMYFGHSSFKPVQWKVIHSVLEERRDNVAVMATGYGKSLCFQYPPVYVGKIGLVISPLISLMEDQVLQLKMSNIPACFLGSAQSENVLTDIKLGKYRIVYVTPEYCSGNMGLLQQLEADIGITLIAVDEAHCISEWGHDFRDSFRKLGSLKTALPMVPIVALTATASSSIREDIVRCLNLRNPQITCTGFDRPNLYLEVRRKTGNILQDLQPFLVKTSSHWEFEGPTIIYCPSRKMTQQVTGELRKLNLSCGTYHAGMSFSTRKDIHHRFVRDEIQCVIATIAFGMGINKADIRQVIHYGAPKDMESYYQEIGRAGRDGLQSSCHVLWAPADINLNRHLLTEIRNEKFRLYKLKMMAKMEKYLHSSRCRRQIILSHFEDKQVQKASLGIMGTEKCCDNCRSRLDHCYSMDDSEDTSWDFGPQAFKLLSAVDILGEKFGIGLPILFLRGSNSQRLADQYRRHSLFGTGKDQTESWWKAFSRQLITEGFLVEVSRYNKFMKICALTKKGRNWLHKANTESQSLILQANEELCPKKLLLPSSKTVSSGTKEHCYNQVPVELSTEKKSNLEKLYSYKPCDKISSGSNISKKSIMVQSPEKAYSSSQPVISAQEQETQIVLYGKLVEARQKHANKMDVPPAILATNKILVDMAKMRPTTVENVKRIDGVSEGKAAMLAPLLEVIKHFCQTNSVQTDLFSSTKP
Outline: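 DNA-dependent ATP hydrolysis detected as ADP by ADP-Glo luminescence, using 300 μM ATP, 0.2 nM FLAP26 substrate and 10 nM WRN aa N517-P1238 (Tris pH 7.5 buffer, 2 mM MgCl2, 50 mM NaCl). IC50s fitted from normalized duplicate half-log dilutions; reported as geometric means of at least 2 replicates.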

SW48 cells = test: Proliferation assay SW48 (CellTiterGlo); format: cell-based; details: Homo sapiens, SW48, 96 h, SW48 colon carcinoma cells, 96 hours, CellTiterGlo; geometric mean of at least 2; read-out: Proliferation Assay SW48 GI50
Outline: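 Read-out is CellTiterGlo luminescence after 96 hours of compound exposure, with % growth calculated against day-0 and vehicle-treated ATP levels. SW48 seeded at 2,000 cells/well, dosed next day with eight 3-fold serial dilutions, 0.1% DMSO. GI50 reported as geometric mean, at least 2 replicates.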

DLD1-WRN-KO cells = test: Proliferation assay DLD1-WRN-KO (CellTiterGlo, off-target effects); format: cell-based; details: 96 hours, geometric mean of at least 2
Outline: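 DLD1 cells with CRISPR knockout of WRN were exposed overnight-seeded to eight 3-fold compound dilutions (0.1% DMSO) for 96 h at 37 °C. Viability was read as ATP by CellTiterGlo luminescence against a day-0 plate, giving GI50 and residual viability at top concentration.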

With `CCc1c(N2CCN(C(=O)c3ncc4c(c3O)OCC4)CC2)c(=O)n2nc(C3=CCOCC3)nc2n1CC(=O)Nc1ccc(C(F)(F)F)cc1C` [Example 37, 2-(2-(3,6-dihydro-2H-pyran-4-yl)-5-ethyl-6-(4-(7-hydroxy-2,3-dihydrofuro[3,2-c]pyridine-6-carbonyl)piperazin-1-yl)-7-oxo-[1,2,4]triazolo[1,5-a]pyrimidin-4(7H)-yl)-N-(2-methyl-4-(trifluoromethyl)phenyl)acetamide] the IC50 [1] was 90 nM, the GI50 (SW48 cells) was 0.09 µM and the GI50 (DLD1-WRN-KO cells) was > 10 µM.

For `CC(=O)N1CCN(c2c(C)n(CC(=O)Nc3cc(F)c(C(F)(F)F)nc3Cl)c3nc(C4=CCOCC4)nn3c2=O)CC1` [Example 101, 2-(6-(4-acetylpiperazin-1-yl)-2-(3,6-dihydro-2H-pyran-4-yl)-5-methyl-7-oxo-[1,2,4]triazolo[1,5-a]pyrimidin-4(7H)-yl)-N-(2-chloro-5-fluoro-6-(trifluoromethyl)pyridin-3-yl)acetamide], the IC50 [1] was 2000 nM, the GI50 (SW48 cells) was 10 µM and the GI50 (DLD1-WRN-KO cells) was > 10 µM.

For `CC(=O)N1CCN(c2c(C)n(CC(=O)Nc3cc(F)c(C(F)(F)F)cc3C)c3nc(C4=CCOCC4)nn3c2=O)CC1` [Example 83, 2-(6-(4-acetylpiperazin-1-yl)-2-(3,6-dihydro-2H-pyran-4-yl)-5-methyl-7-oxo-[1,2,4]triazolo[1,5-a]pyrimidin-4(7H)-yl)-N-(5-fluoro-2-methyl-4-(trifluoromethyl)phenyl)acetamide], the IC50 [1] was 300 nM, the GI50 (SW48 cells) was 2 µM and the GI50 (DLD1-WRN-KO cells) was > 10 µM.

Compound `Cc1c(N2CCN(C(=O)OCc3ccccc3)CC2)c(=O)n2nc(C3=CCOCC3)nc2n1CC(=O)Nc1ccc(C(F)(F)F)cc1` [Example 65, benzyl 4-(2-(3,6-dihydro-2H-pyran-4-yl)-5-methyl-7-oxo-4-(2-oxo-2-((4-(trifluoromethyl)phenyl)amino)ethyl)-4,7-dihydro-[1,2,4]triazolo[1,5-a]pyrimidin-6-yl)piperazine-1-carboxylate] has an IC50 [1] of 8000 nM, a GI50 (SW48 cells) of 4 µM and a GI50 (DLD1-WRN-KO cells) of 4 µM.

In the case of `Cc1c(N2CCN(C(=O)c3cnccc3O)CC2)c(=O)n2nc(C3=CCOCC3)nc2n1CC(=O)Nc1ccc(C(F)(F)F)cc1` [Example 24, 2-(2-(3,6-dihydro-2H-pyran-4-yl)-6-(4-(4-hydroxynicotinoyl)piperazin-1-yl)-5-methyl-7-oxo-[1,2,4]triazolo[1,5-a]pyrimidin-4(7H)-yl)-N-(4-(trifluoromethyl)phenyl)acetamide], the IC50 [1] is reported as 200 nM, the GI50 (SW48 cells) is reported as > 10 µM and the GI50 (DLD1-WRN-KO cells) is reported as > 10 µM.

In the case of `CCc1c(C2CCN(C(C)=O)CC2)c(=O)n2nc(C3=CCC(OC)CC3)nc2n1CC(=O)Nc1ccc(C(F)(F)F)cc1` (stereo not drawn) [Example 139, 2-(6-(1-acetylpiperidin-4-yl)-5-ethyl-2-(4-methoxycyclohex-1-en-1-yl)-7-oxo-[1,2,4]triazolo[1,5-a]pyrimidin-4(7H)-yl)-N-(4-(trifluoromethyl)phenyl)acetamide], the IC50 [1] is reported as 100 nM, the GI50 (SW48 cells) is reported as 1 µM and the GI50 (DLD1-WRN-KO cells) is reported as > 10 µM.

In the case of `CC(=O)N1CCN(c2c(C)n(CC(=O)Nc3cc(F)c(C(F)F)cc3C)c3nc(C4=CCOCC4)nn3c2=O)CC1` [Example 94, 2-(6-(4-acetylpiperazin-1-yl)-2-(3,6-dihydro-2H-pyran-4-yl)-5-methyl-7-oxo-[1,2,4]triazolo[1,5-a]pyrimidin-4(7H)-yl)-N-(4-(difluoromethyl)-5-fluoro-2-methylphenyl)acetamide], the IC50 [1] is reported as 700 nM, the GI50 (SW48 cells) is reported as 3 µM and the GI50 (DLD1-WRN-KO cells) is reported as > 10 µM.

`Cc1cccc(O)c1C(=O)N1CCN(c2c(C)n(CC(=O)Nc3ccc(C(F)(F)F)cc3)c3nc(C4=CCOCC4)nn3c2=O)CC1` [Example 25, 2-(2-(3,6-dihydro-2H-pyran-4-yl)-6-(4-(2-hydroxy-6-methylbenzoyl)piperazin-1-yl)-5-methyl-7-oxo-[1,2,4]triazolo[1,5-a]pyrimidin-4(7H)-yl)-N-(4-(trifluoromethyl)phenyl)acetamide] was tested, and the IC50 [1] was 200 nM, the GI50 (SW48 cells) was 4 µM and the GI50 (DLD1-WRN-KO cells) was > 10 µM.

For `CCON1CCN(c2nc3n(CC(=O)Nc4ccc(C(F)(F)F)cc4)c(C)c(N4CCN(C(C)=O)CC4)c(=O)n3n2)CC1` [Example 131, 2-(6-(4-acetylpiperazin-1-yl)-2-(4-ethoxypiperazin-1-yl)-5-methyl-7-oxo-[1,2,4]triazolo[1,5-a]pyrimidin-4(7H)-yl)-N-(4-(trifluoromethyl)phenyl)acetamide], the IC50 [1] was 1000 nM, the GI50 (SW48 cells) was 6 µM and the GI50 (DLD1-WRN-KO cells) was > 10 µM.

For `Cc1c(N2CCN(C(=O)Nc3nccs3)CC2)c(=O)n2nc(C3=CCOCC3)nc2n1CC(=O)Nc1ccc(C(F)(F)F)cc1` [Example 29, 4-(2-(3,6-dihydro-2H-pyran-4-yl)-5-methyl-7-oxo-4-(2-oxo-2-((4-(trifluoromethyl)phenyl)amino)ethyl)-4,7-dihydro-[1,2,4]triazolo[1,5-a]pyrimidin-6-yl)-N-(thiazol-2-yl)piperazine-1-carboxamide], the IC50 [1] was 100 nM, the GI50 (SW48 cells) was 2 µM and the GI50 (DLD1-WRN-KO cells) was > 10 µM.

For `Cc1c(N2CCN(C(=O)c3cccnc3O)CC2)c(=O)n2nc(C3=CCOCC3)nc2n1CC(=O)Nc1ccc(C(F)(F)F)cc1` [Example 48, 2-(2-(3,6-dihydro-2H-pyran-4-yl)-6-(4-(2-hydroxynicotinoyl)piperazin-1-yl)-5-methyl-7-oxo-[1,2,4]triazolo[1,5-a]pyrimidin-4(7H)-yl)-N-(4-(trifluoromethyl)phenyl)acetamide], the IC50 [1] was 100 nM, the GI50 (SW48 cells) was > 10 µM and the GI50 (DLD1-WRN-KO cells) was > 10 µM.

In the case of `Cc1c(C2CCN(C(=O)c3ccc(F)c(F)c3O)CC2)c(=O)n2nc(N3CCOCC3)nc2n1CC(=O)Nc1ccc(C(F)(F)F)cc1` [Example 146, 2-(6-(1-(3,4-difluoro-2-hydroxybenzoyl)piperidin-4-yl)-5-methyl-2-morpholino-7-oxo-[1,2,4]triazolo[1,5-a]pyrimidin-4(7H)-yl)-N-(4-(trifluoromethyl)phenyl)acetamide], the IC50 [1] is reported as 90 nM, the GI50 (SW48 cells) is reported as 4 µM and the GI50 (DLD1-WRN-KO cells) is reported as > 10 µM.

With `Cc1c(N2CCN(C(=O)c3c(O)cccc3Cl)CC2)c(=O)n2nc(C3=CCOCC3)nc2n1CC(=O)Nc1ccc(C(F)(F)F)cc1` [Example 149, 2-(6-(4-(2-chloro-6-hydroxybenzoyl)piperazin-1-yl)-2-(3,6-dihydro-2H-pyran-4-yl)-5-methyl-7-oxo-[1,2,4]triazolo[1,5-a]pyrimidin-4(7H)-yl)-N-(4-(trifluoromethyl)phenyl)acetamide] the IC50 [1] was 90 nM, the GI50 (SW48 cells) was 2 µM and the GI50 (DLD1-WRN-KO cells) was > 10 µM.

For `CCc1c(N2CCN(C(=O)c3ccc(Cl)c(F)c3O)CC2)c(=O)n2nc(C3=CCOCC3)nc2n1CC(=O)Nc1ccc(C(F)(F)F)cc1C` [Example 45, 2-(6-(4-(4-chloro-3-fluoro-2-hydroxybenzoyl)piperazin-1-yl)-2-(3,6-dihydro-2H-pyran-4-yl)-5-ethyl-7-oxo-[1,2,4]triazolo[1,5-a]pyrimidin-4(7H)-yl)-N-(2-methyl-4-(trifluoromethyl)phenyl)acetamide], the IC50 [1] was 90 nM, the GI50 (SW48 cells) was 0.3 µM and the GI50 (DLD1-WRN-KO cells) was > 10 µM.

For `Cc1c(N2CCN(C(=O)c3cc(F)cnc3O)CC2)c(=O)n2nc(C3=CCOCC3)nc2n1CC(=O)Nc1ccc(C(F)(F)F)cc1` [Example 21, 2-(2-(3,6-dihydro-2H-pyran-4-yl)-6-(4-(5-fluoro-2-hydroxynicotinoyl)piperazin-1-yl)-5-methyl-7-oxo-[1,2,4]triazolo[1,5-a]pyrimidin-4(7H)-yl)-N-(4-(trifluoromethyl)phenyl)acetamide], the IC50 [1] was 100 nM, the GI50 (SW48 cells) was > 10 µM and the GI50 (DLD1-WRN-KO cells) was > 10 µM.

For `COC1CCN(c2nc3n(CC(=O)Nc4ccc(C(F)(F)F)cc4)c(C)c(N4CCN(C(C)=O)CC4)c(=O)n3n2)CC1` [Example 123, 2-(6-(4-acetylpiperazin-1-yl)-2-(4-methoxypiperidin-1-yl)-5-methyl-7-oxo-[1,2,4]triazolo[1,5-a]pyrimidin-4(7H)-yl)-N-(4-(trifluoromethyl)phenyl)acetamide], the IC50 [1] was 700 nM, the GI50 (SW48 cells) was 9 µM and the GI50 (DLD1-WRN-KO cells) was > 10 µM.

With `CC(=O)N1CCN(c2c(C)n(CC(=O)Nc3ccc(C(F)(F)F)cc3)c3nc(C4=CCCO4)nn3c2=O)CC1` [Example 134, 2-(6-(4-acetylpiperazin-1-yl)-2-(4,5-dihydrofuran-2-yl)-5-methyl-7-oxo-[1,2,4]triazolo[1,5-a]pyrimidin-4(7H)-yl)-N-(4-(trifluoromethyl)phenyl)acetamide] the IC50 [1] was 4000 nM, the GI50 (SW48 cells) was 5 µM and the GI50 (DLD1-WRN-KO cells) was > 10 µM.

Work on `CC(=O)N1CCN(c2c(C)n(CC(=O)Nc3ccc(Cl)cc3)c3nc(-c4ccccc4)nn3c2=O)CC1` [Example 3, 2-(6-(4-acetylpiperazin-1-yl)-5-methyl-7-oxo-2-phenyl-[1,2,4]triazolo[1,5-a]pyrimidin-4(7H)-yl)-N-(4-chlorophenyl)acetamide] yielded an IC50 [1] of 100 nM, a GI50 (SW48 cells) of 3 µM and a GI50 (DLD1-WRN-KO cells) of 10 µM.

With `CC(=O)N1CCN(c2c(C)n(CC(=O)Nc3ccc(C(F)(F)F)nc3Cl)c3nc(N4CCCC(F)C4)nn3c2=O)CC1` (stereo not drawn) [Example 5, 2-(6-(4-acetylpiperazin-1-yl)-2-(3-fluoropiperidin-1-yl)-5-methyl-7-oxo-[1,2,4]triazolo[1,5-a]pyrimidin-4(7H)-yl)-N-(2-chloro-6-(trifluoromethyl)pyridin-3-yl)acetamide] the IC50 [1] was 2000 nM, the GI50 (SW48 cells) was 8 µM and the GI50 (DLD1-WRN-KO cells) was > 10 µM.
